# Data from ChEMBL document CHEMBL3045205, “Synthesis and Fungicidal Activities of [2-(2, 5-Dimethylphenoxymethyl)--methoxyiminobenzyl]-isoxazole Derivatives” (J Pestic Sci, 1999).
# Columns and labels:
# Format in all cases: functional
# [1] = system: Blumeria graminis f. sp. tritici; experiment: Fungicidal activity against Blumeria graminis f. sp. tritici inoculated on wheat seedlings pre-treated with compound 24 hr before fungal inoculation assessed as inhibition of wheat powdery mildew disease at 7.8 ppm measured after 10 days under greenhouse conditions relative to untreated control
# Podosphaera fuliginea [2] = experiment: Fungicidal activity against Podosphaera fuliginea inoculated on cucumber plants pre-treated with compound 24 hr before fungal inoculation assessed as inhibition of cucumber powdery mildew disease at 7.8 ppm measured after 10 days under greenhouse conditions relative to untreated control
# Pyricularia oryzae = experiment: Inhibition of oxygen consumption in Magnaporthe oryzae submitochondrial particles using NADH substrate
# Podosphaera fuliginea [3] = experiment: Fungicidal activity against Podosphaera fuliginea inoculated on cucumber plants pre-treated with compound 24 hr before fungal inoculation assessed as inhibition of cucumber powdery mildew disease at 31.3 ppm measured after 10 days under greenhouse conditions relative to untreated control
# Puccinia coronata [4] = experiment: Fungicidal activity against Puccinia coronata inoculated in oat leaves treated with compound 24 hr after fungal inoculation assessed as inhibition of oat crown rust disease at 7.8 ppm measured after 9 days under greenhouse conditions relative to untreated control
# Podosphaera fuliginea [5] = experiment: Fungicidal activity against Podosphaera fuliginea inoculated on cucumber plants treated with compound 24 hr after fungal inoculation assessed as inhibition of cucumber powdery mildew disease at 31.3 ppm measured after 10 days under greenhouse conditions relative to untreated control
# Botrytis cinerea [6] = experiment: Fungicidal activity against Botryotinia fuckeliana inoculated on cucumber leaves treated with compound 24 hr after fungal inoculation assessed as inhibition of cucumber gray mold disease at 31.3 ppm measured after 3 days under greenhouse conditions relative to untreated control
# [7] = system: Blumeria graminis f. sp. tritici; experiment: Fungicidal activity against Blumeria graminis f. sp. tritici inoculated on wheat seedlings treated with compound 24 hr after fungal inoculation assessed as inhibition of wheat powdery mildew disease at 7.8 ppm measured after 10 days under greenhouse conditions relative to untreated control
# Botrytis cinerea [8] = experiment: Fungicidal activity against Botryotinia fuckeliana inoculated on cucumber leaves treated with compound 24 hr after fungal inoculation assessed as inhibition of cucumber gray mold disease at 7.8 ppm measured after 3 days under greenhouse conditions relative to untreated control
# Puccinia coronata [9] = experiment: Fungicidal activity against Puccinia coronata inoculated in oat leaves treated with compound 24 hr after fungal inoculation assessed as inhibition of oat crown rust disease at 31.3 ppm measured after 9 days under greenhouse conditions relative to untreated control
# [10] = system: Blumeria graminis f. sp. tritici; experiment: Fungicidal activity against Blumeria graminis f. sp. tritici inoculated on wheat seedlings pre-treated with compound 24 hr before fungal inoculation assessed as inhibition of wheat powdery mildew disease at 31.3 ppm measured after 10 days under greenhouse conditions relative to untreated control
# Puccinia coronata [11] = experiment: Fungicidal activity against Puccinia coronata inoculated in oat leaves pre-treated with compound 24 hr before fungal inoculation assessed as inhibition of oat crown rust disease at 31.3 ppm measured after 9 days under greenhouse conditions relative to untreated control
# [12] = system: Blumeria graminis f. sp. tritici; experiment: Fungicidal activity against Blumeria graminis f. sp. tritici inoculated on wheat seedlings treated with compound 24 hr after fungal inoculation assessed as inhibition of wheat powdery mildew disease at 31.3 ppm measured after 10 days under greenhouse conditions relative to untreated control
# Botrytis cinerea [13] = experiment: Fungicidal activity against Botryotinia fuckeliana inoculated on cucumber leaves pre-treated with compound 24 hr before fungal inoculation assessed as inhibition of cucumber gray mold disease at 31.3 ppm measured after 3 days under greenhouse conditions relative to untreated control
# Botrytis cinerea [14] = experiment: Fungicidal activity against Botryotinia fuckeliana inoculated on cucumber leaves pre-treated with compound 24 hr before fungal inoculation assessed as inhibition of cucumber gray mold disease at 7.8 ppm measured after 3 days under greenhouse conditions relative to untreated control
# Podosphaera fuliginea [15] = experiment: Fungicidal activity against Podosphaera fuliginea inoculated on cucumber plants treated with compound 24 hr after fungal inoculation assessed as inhibition of cucumber powdery mildew disease at 7.8 ppm measured after 10 days under greenhouse conditions relative to untreated control
# Puccinia coronata [16] = experiment: Fungicidal activity against Puccinia coronata inoculated in oat leaves pre-treated with compound 24 hr before fungal inoculation assessed as inhibition of oat crown rust disease at 7.8 ppm measured after 9 days under greenhouse conditions relative to untreated control
# [17] = system: Blumeria graminis f. sp. tritici; experiment: Fungicidal activity against Blumeria graminis f. sp. tritici inoculated on wheat seedlings pre-treated with compound 24 hr before fungal inoculation assessed as inhibition of wheat powdery mildew disease at 125 ppm measured after 10 days under greenhouse conditions relative to untreated control
# Podosphaera fuliginea [18] = experiment: Fungicidal activity against Podosphaera fuliginea inoculated on cucumber plants pre-treated with compound 24 hr before fungal inoculation assessed as inhibition of cucumber powdery mildew disease at 500 ppm measured after 10 days under greenhouse conditions relative to untreated control
# [19] = system: Blumeria graminis f. sp. tritici; experiment: Fungicidal activity against Blumeria graminis f. sp. tritici inoculated on wheat seedlings pre-treated with compound 24 hr before fungal inoculation assessed as inhibition of wheat powdery mildew disease at 500 ppm measured after 10 days under greenhouse conditions relative to untreated control
compound,measurement,setting,value
CON=C(c1ccon1)c1ccccc1COc1cc(C)ccc1C,inhibition at 7.8 ppm,[1],90%
same,inhibition at 7.8 ppm,Podosphaera fuliginea [2],90%
CNC(=O)/C(=N/OC)c1ccccc1Oc1cc(C)ccc1C,inhibition at 7.8 ppm,[1],100%
same,IC50,Pyricularia oryzae,18 nM
same,inhibition at 31.3 ppm,Podosphaera fuliginea [3],100%
same,inhibition at 7.8 ppm,Puccinia coronata [4],100%
same,inhibition at 31.3 ppm,Podosphaera fuliginea [5],100%
same,inhibition at 31.3 ppm,Botrytis cinerea [6],50%
same,inhibition at 7.8 ppm,[7],97%
same,inhibition at 7.8 ppm,Podosphaera fuliginea [2],100%
same,inhibition at 7.8 ppm,Botrytis cinerea [8],40%
same,inhibition at 31.3 ppm,Puccinia coronata [9],100%
same,inhibition at 31.3 ppm,[10],100%
same,inhibition at 31.3 ppm,Puccinia coronata [11],100%
same,inhibition at 31.3 ppm,[12],97%
same,inhibition at 31.3 ppm,Botrytis cinerea [13],50%
same,inhibition at 7.8 ppm,Botrytis cinerea [14],40%
same,inhibition at 7.8 ppm,Podosphaera fuliginea [15],100%
same,inhibition at 7.8 ppm,Puccinia coronata [16],100%
CON=C(C1=NOCC1)c1ccccc1COc1cc(C)ccc1C,inhibition at 125 ppm,[17],90%
same,inhibition at 7.8 ppm,Podosphaera fuliginea [2],90%
CO/N=C(\c1ccon1)c1ccccc1COc1cc(C)ccc1C,inhibition at 7.8 ppm,[1],90%
same,inhibition at 31.3 ppm,Podosphaera fuliginea [3],90%
CO/N=C(\c1ccno1)c1ccccc1COc1cc(C)ccc1C,inhibition at 500 ppm,Podosphaera fuliginea [18],90%
same,inhibition at 500 ppm,[19],90%
CON=C(c1cc(C)on1)c1ccccc1COc1cc(C)ccc1C,inhibition at 7.8 ppm,Podosphaera fuliginea [2],90%
same,inhibition at 31.3 ppm,[10],90%
CO/N=C(\c1cc(C)no1)c1ccccc1COc1cc(C)ccc1C,inhibition at 7.8 ppm,[1],97%
same,IC50,Pyricularia oryzae,46 nM
same,inhibition at 31.3 ppm,Podosphaera fuliginea [3],100%
same,inhibition at 7.8 ppm,Puccinia coronata [4],97%
same,inhibition at 31.3 ppm,Podosphaera fuliginea [5],100%
same,inhibition at 31.3 ppm,Botrytis cinerea [6],20%
same,inhibition at 7.8 ppm,[7],70%
same,inhibition at 7.8 ppm,Podosphaera fuliginea [2],100%
same,inhibition at 7.8 ppm,Botrytis cinerea [8],0%
same,inhibition at 31.3 ppm,Puccinia coronata [9],100%
same,inhibition at 31.3 ppm,[10],97%
same,inhibition at 31.3 ppm,Puccinia coronata [11],97%
same,inhibition at 31.3 ppm,[12],97%
same,inhibition at 31.3 ppm,Botrytis cinerea [13],30%
same,inhibition at 7.8 ppm,Botrytis cinerea [14],10%
same,inhibition at 7.8 ppm,Podosphaera fuliginea [15],100%
same,inhibition at 7.8 ppm,Puccinia coronata [16],90%
CO/N=C(/C1=NOCC1)c1ccccc1COc1cc(C)ccc1C,inhibition at 7.8 ppm,[1],90%
same,inhibition at 31.3 ppm,Podosphaera fuliginea [3],100%
same,inhibition at 7.8 ppm,Puccinia coronata [4],0%
same,inhibition at 31.3 ppm,Podosphaera fuliginea [5],100%
same,inhibition at 31.3 ppm,Botrytis cinerea [6],20%
same,inhibition at 7.8 ppm,[7],70%
same,inhibition at 7.8 ppm,Podosphaera fuliginea [2],90%
same,inhibition at 7.8 ppm,Botrytis cinerea [8],0%
same,inhibition at 31.3 ppm,Puccinia coronata [9],50%
same,inhibition at 31.3 ppm,[10],90%
same,inhibition at 31.3 ppm,Puccinia coronata [11],90%
same,inhibition at 31.3 ppm,[12],97%
same,inhibition at 31.3 ppm,Botrytis cinerea [13],20%
same,inhibition at 7.8 ppm,Botrytis cinerea [14],0%
same,inhibition at 7.8 ppm,Podosphaera fuliginea [15],100%
same,inhibition at 7.8 ppm,Puccinia coronata [16],30%
CO/N=C(/C1=NOC(C)C1)c1ccccc1COc1cc(C)ccc1C (configuration not stated),inhibition at 31.3 ppm,Podosphaera fuliginea [3],90%
same,inhibition at 500 ppm,[19],90%
